The values that follow come from paper PMC8326665, “Branebrutinib (BMS-986195), a Bruton’s Tyrosine Kinase Inhibitor, Resensitizes P-Glycoprotein-Overexpressing Multidrug-Resistant Cancer Cells to Chemotherapeutic Agents” (Frontiers in Cell and Developmental Biology, 2021).

As usually defined, the EC50 is the concentration needed to bring the measured effect to its halfway point. Read a high EC50 as lower potency in that assay.

The target in the assay is T1, P-glycoprotein (P-gp/ABCB1) (Homo sapiens, UniProt P08183).
T1 construct: full-length human P-gp; MDR1 baculovirus in High-Five insect cell total membranes (ATPase); transfected MDR19-HEK293 cells (calcein efflux)
Kind of assay: vanadate-sensitive ATPase activity, endpoint inorganic phosphate assay, insect cell membranes. The class given is biochemical. The source says: vanadate-sensitive ATPase activity, endpoint inorganic phosphate assay, insect cell membranes on P-glycoprotein (P-gp/ABCB1) | half maximal effective concentration (EC50) value

T1 sequence (P08183 whole entry): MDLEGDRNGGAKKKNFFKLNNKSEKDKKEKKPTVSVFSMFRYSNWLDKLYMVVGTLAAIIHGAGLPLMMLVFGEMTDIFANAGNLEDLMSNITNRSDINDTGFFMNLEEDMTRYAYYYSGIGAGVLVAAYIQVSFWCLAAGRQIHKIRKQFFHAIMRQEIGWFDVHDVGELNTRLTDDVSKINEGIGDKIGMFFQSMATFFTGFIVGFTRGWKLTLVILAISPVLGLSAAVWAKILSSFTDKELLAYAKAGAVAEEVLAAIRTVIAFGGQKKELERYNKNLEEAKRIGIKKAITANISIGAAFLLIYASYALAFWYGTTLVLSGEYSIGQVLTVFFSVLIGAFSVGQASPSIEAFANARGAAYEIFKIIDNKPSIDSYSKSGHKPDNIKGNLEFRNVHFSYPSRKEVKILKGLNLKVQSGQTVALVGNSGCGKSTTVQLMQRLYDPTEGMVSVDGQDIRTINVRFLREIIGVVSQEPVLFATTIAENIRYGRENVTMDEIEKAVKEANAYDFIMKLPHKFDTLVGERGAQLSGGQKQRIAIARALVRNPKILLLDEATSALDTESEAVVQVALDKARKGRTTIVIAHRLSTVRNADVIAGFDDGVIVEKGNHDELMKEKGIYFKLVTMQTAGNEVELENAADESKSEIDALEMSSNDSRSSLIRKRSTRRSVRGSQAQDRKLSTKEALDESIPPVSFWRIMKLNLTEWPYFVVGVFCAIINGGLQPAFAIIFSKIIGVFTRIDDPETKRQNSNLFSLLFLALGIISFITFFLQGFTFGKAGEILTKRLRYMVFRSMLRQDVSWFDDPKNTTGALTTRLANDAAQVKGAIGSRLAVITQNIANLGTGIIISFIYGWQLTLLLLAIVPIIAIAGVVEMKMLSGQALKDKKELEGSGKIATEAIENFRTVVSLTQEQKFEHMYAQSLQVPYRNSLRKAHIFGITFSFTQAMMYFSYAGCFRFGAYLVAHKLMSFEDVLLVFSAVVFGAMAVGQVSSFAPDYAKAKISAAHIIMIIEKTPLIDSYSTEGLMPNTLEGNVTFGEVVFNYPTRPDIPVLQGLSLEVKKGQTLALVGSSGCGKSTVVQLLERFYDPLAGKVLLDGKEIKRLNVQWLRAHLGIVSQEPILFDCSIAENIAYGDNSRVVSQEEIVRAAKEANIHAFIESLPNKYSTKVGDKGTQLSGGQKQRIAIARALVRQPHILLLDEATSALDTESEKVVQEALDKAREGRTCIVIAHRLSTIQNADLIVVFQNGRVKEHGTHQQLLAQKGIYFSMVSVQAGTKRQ

Regarding `CC#CC(=O)N[C@H]1CCCN(c2c(F)cc(C(N)=O)c3[nH]c(C)c(C)c23)C1` [branebrutinib], the EC50 is about 4.5 µM.
